Experimental data from ChEMBL document CHEMBL5352392, “Design, synthesis, and biological evaluation of novel dual inhibitors of heat shock protein 90/mammalian target of rapamycin (Hsp90/mTOR) against bladder cancer cells” (Eur J Med Chem, 2022).

Legend:
[1] = target: T1, Serine/threonine-protein kinase mTOR (Homo sapiens, UniProt P42345); experiment: Inhibition of mTOR (unknown origin) by kinase profiling assay
Heat shock protein HSP90 [2] = target: T2, Heat shock protein HSP90 (Homo sapiens, UniProt P07900+P08238); experiment: Inhibition of Hsp90 (unknown origin) by TR-FRET assay; assay type: protein assay
[3] = target: Phosphatidylinositol 4,5-bisphosphate 3-kinase catalytic subunit alpha isoform (Homo sapiens, UniProt P42336); experiment: Inhibition of PI3Kalpha (unknown origin) by kinase profiling assay
Heat shock protein HSP90 [4] = target: T2, Heat shock protein HSP90; details: dose 100.0 nM
Description: Inhibition of Hsp90 (unknown origin) at 100 nM by TR-FRET assay relative to control

J82 [5] = experiment: Antiproliferative activity against human J82 cells assessed as inhibition of cell proliferation at 1 uM by CCK8 assay relative to control; assay type: functional
T-24 [6] = experiment: Antiproliferative activity against human T24 cells assessed as inhibition of cell proliferation by CCK8 assay; assay type: functional, cell-based
SW780 [7] = experiment: Antiproliferative activity against human SW780 cells assessed as inhibition of cell proliferation at 1 uM by CCK8 assay relative to control; assay type: functional
SW780 [8] = experiment: Antiproliferative activity against human SW780 cells assessed as inhibition of cell proliferation by CCK8 assay; assay type: functional, cell-based
T-24 [9] = experiment: Antiproliferative activity against human T24 cells assessed as inhibition of cell proliferation at 1 uM by CCK8 assay relative to control; assay type: functional
J82 [10] = experiment: Antiproliferative activity against human J82 cells assessed as inhibition of cell proliferation by CCK8 assay; assay type: functional, cell-based
[11] = target: T1, Serine/threonine-protein kinase mTOR; experiment: Inhibition of mTOR (unknown origin) at 100 nM by kinase profiling assay relative to control

Chain of Phosphatidylinositol 4,5-bisphosphate 3-kinase catalytic subunit alpha isoform (P42336 whole entry, canonical isoform): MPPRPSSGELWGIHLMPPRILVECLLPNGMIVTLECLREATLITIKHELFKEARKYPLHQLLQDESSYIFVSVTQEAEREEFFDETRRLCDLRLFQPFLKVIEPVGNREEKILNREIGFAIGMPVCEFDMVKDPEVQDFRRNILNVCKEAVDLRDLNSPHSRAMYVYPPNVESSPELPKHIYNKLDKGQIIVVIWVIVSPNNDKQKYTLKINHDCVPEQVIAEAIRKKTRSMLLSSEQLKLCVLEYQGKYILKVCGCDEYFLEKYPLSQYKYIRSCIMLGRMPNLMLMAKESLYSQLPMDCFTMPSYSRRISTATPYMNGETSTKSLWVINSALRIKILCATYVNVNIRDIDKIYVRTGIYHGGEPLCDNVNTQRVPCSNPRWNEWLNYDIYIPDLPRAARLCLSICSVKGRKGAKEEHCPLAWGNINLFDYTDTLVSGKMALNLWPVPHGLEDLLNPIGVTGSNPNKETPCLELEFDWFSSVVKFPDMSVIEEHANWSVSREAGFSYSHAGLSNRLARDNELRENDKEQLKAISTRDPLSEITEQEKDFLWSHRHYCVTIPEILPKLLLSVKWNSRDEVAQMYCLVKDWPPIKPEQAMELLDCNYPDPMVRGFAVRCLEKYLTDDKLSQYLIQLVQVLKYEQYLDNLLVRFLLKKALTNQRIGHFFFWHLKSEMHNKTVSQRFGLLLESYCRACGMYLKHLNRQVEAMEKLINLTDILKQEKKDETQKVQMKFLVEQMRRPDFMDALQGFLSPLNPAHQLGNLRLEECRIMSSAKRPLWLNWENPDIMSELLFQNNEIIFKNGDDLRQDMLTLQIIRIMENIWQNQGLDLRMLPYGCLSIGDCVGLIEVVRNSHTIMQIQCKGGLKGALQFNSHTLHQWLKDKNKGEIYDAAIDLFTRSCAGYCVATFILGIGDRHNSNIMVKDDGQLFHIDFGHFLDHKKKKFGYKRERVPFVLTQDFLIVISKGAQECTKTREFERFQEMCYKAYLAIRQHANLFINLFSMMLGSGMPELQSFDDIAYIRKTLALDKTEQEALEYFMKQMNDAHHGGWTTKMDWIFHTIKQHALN

| Structure (SMILES) | IC50 [1] [nM] | IC50 (Heat shock protein HSP90 [2]) [nM] | IC50 [3] [nM] | inhibition (Heat shock protein HSP90 [4]) [%] | inhibition at 1 µM (J82 [5]) [%] | IC50 (T-24 [6]) [nM] | inhibition at 1 µM (SW780 [7]) [%] | IC50 (SW780 [8]) [nM] | inhibition at 1 µM (T-24 [9]) [%] | IC50 (J82 [10]) [nM] | inhibition [11] [%] |
| --- | --- | --- | --- | --- | --- | --- | --- | --- | --- | --- | --- |
| CC(C)c1cc(C(=O)N2CCc3c(sc4nc(-c5ccc(NC(=O)Nc6cc(Cl)cc(Cl)c6)cc5)nc(N5CCOCC5)c34)C2)c(O)cc1O | 106 | 365 | 5630 | 68.3 | 69.1 | 550 | 77.8 | 690 | 67 | 1590 | 73.5 |
| CC(C)c1cc(C(=O)N2CCc3c(sc4nc(-c5ccc(NC(=O)Nc6cccc(C(F)(F)F)c6)cc5)nc(N5CCOCC5)c34)C2)c(O)cc1O | 218 | 126 | 2450 | 73.8 | 69.1 | 940 | 65.6 | 660 | 82.5 | 2760 | 66.3 |
| CC(C)c1cc(C(=O)N2CCc3c(sc4nc(N5CCOCC5)nc(NCCN5CCOCC5)c34)C2)c(O)cc1O | – | – | – | 81.5 | 58.7 | – | 75 | – | 50.2 | – | 39.1 |
| CC(C)c1cc(C(=O)N2CCc3c(sc4nc(N5CCN(C)CC5)nc(N5CCOCC5)c34)C2)c(O)cc1O | – | – | – | 63.8 | 59.2 | – | 68 | – | 69.9 | – | 62.6 |
| CC(C)c1cc(C(=O)N2CCc3c(sc4nc(-c5ccc(NC(=O)Nc6ccccc6F)cc5)nc(N5CCOCC5)c34)C2)c(O)cc1O | – | – | – | 70 | 78.7 | – | 83.7 | – | 70.1 | – | 74.8 |
| COc1ccc(-c2ccc3c(N4CCOC[C@@H]4C)nc(N4CCOC[C@@H]4C)nc3n2)cc1CO [AZD-8055] | – | – | 4450 | – | 72.4 | 540 | 79.6 | 810 | 73.3 | 650 | 93.3 |
| CC(C)c1cc(C(=O)N2CCc3c(sc4nc(N5CCC(F)(F)CC5)nc(N5CCOCC5)c34)C2)c(O)cc1O | – | – | – | 36.3 | 45 | – | 37.9 | – | 34.4 | – | 41.3 |
| CC(C)c1cc(C(=O)N2CCc3c(sc4nc(NCCN5CCOCC5)nc(N5CCOCC5)c34)C2)c(O)cc1O | – | – | – | 62.1 | 72.2 | – | 55.2 | – | 78 | – | 68.2 |
| CC(C)c1cc(C(=O)N2CCc3c(sc4nc(N5CCOCC5)nc(N5CCOC(F)(F)C5)c34)C2)c(O)cc1O | – | – | – | 27.5 | 41.4 | – | 37.1 | – | 42.1 | – | 44.1 |
| CC(C)c1cc(C(=O)N2CCc3c(sc4nc(-c5ccc(NC(=O)Nc6cccc(F)c6)cc5)nc(N5CCOCC5)c34)C2)c(O)cc1O | – | – | – | 64.9 | 58.8 | – | 59.9 | – | 63.8 | – | 47.7 |
| CC(C)c1cc(C(=O)N2CCc3c(sc4nc(N5CCOC[C@@H]5C)nc(N5CCOC[C@@H]5C)c34)C2)c(O)cc1O | 73 | 476 | > 10000 | 56.6 | 52.8 | 1680 | 79.9 | 370 | 55.4 | 780 | 75.4 |
| CCNC(=O)Nc1ccc(-c2nc(N3CCOCC3)c3c4c(sc3n2)CN(C(=O)c2cc(C(C)C)c(O)cc2O)CC4)cc1 | – | – | – | 62.2 | 67.6 | – | 70.2 | – | 57.9 | – | 68.6 |
| CC(C)c1cc(C(=O)N2CCc3c(sc4nc(-c5ccc(NC(=O)N6CCCCC6)cc5)nc(N5CCOCC5)c34)C2)c(O)cc1O | – | – | – | 46.7 | 54.9 | – | 45.1 | – | 41.6 | – | 50.4 |
| CC(C)c1cc(C(=O)N2CCc3c(sc4nc(-c5ccc(NC(=O)Nc6ccc(F)cc6)cc5)nc(N5CCOCC5)c34)C2)c(O)cc1O | – | – | – | 63.2 | 57.8 | – | 69.8 | – | 76.8 | – | 77.4 |
| Cc1cccc(NC(=O)Nc2ccc(-c3nc(N4CCOCC4)c4c5c(sc4n3)CN(C(=O)c3cc(C(C)C)c(O)cc3O)CC5)cc2)c1 | – | – | – | 64.6 | 60.5 | – | 62.5 | – | 84.1 | – | 74.7 |
| CC(C)c1cc(C(=O)N2CCc3c(sc4nc(N5CCOCC5)nc(NC5CCOCC5)c34)C2)c(O)cc1O | – | – | – | 38.2 | 37.1 | – | 38.9 | – | 29.5 | – | 33.7 |
| CC(C)c1cc(C(=O)N2CCc3c(sc4nc(-c5ccncc5)nc(N5CCOCC5)c34)C2)c(O)cc1O | – | – | – | 35.4 | 37.8 | – | 39.5 | – | 47.1 | – | 49.8 |
| CC(C)c1cc(C(=O)N2CCc3c(sc4nc(-c5ccc(NC(=O)Nc6cccc(Cl)c6)cc5)nc(N5CCOCC5)c34)C2)c(O)cc1O | 82 | 147 | 3600 | 72.7 | 84.7 | 1720 | 89.8 | 740 | 65 | 760 | 75.2 |
| CC(C)c1cc(C(=O)N2CCc3c(sc4nc(N5CCCC5)nc(N5CCOCC5)c34)C2)c(O)cc1O | – | – | – | 46.6 | 43.1 | – | 42.1 | – | 54 | – | 52.3 |
| CC(C)c1cc(C(=O)N2CCc3c(sc4nc(N5CCOCC5)nc(N5CCN(C)CC5)c34)C2)c(O)cc1O | – | – | – | 40.8 | 37.2 | – | 44.9 | – | 40.9 | – | 32.7 |
| CC(C)c1cc(C(=O)N2CCc3c(sc4nc(N5CCOCC5)nc(N5CCC(N(C)C)CC5)c34)C2)c(O)cc1O | – | – | – | 45.5 | 52.7 | – | 64.5 | – | 55.8 | – | 76.7 |
| CCNC(=O)c1noc(-c2cc(C(C)C)c(O)cc2O)c1-c1ccc(CN2CCOCC2)cc1 [LUMINESPIB] | – | – | – | – | 35.1 | 4930 | 46.4 | 3950 | 38.8 | 5200 | – |
| CC(C)c1cc(C(=O)N2CCc3c(sc4nc(-c5ccc(N)cc5)nc(N5CCOCC5)c34)C2)c(O)cc1O | – | – | – | 57.8 | 64.4 | – | 66.2 | – | 70.6 | – | 67.4 |
| CC(C)c1cc(C(=O)N2CCc3c(sc4nc(N5CCOC(F)(F)C5)nc(N5CCOCC5)c34)C2)c(O)cc1O | – | – | – | 53.8 | 62.7 | – | 58.8 | – | 63.8 | – | 57.6 |
| CC(C)c1cc(C(=O)N2CCc3c(sc4nc(-c5ccc(NC(=O)Nc6ccccc6Cl)cc5)nc(N5CCOCC5)c34)C2)c(O)cc1O | – | – | – | 64.5 | 72.4 | – | 88.8 | – | 73.8 | – | 76.8 |
